ChEMBL document CHEMBL4627316, “Design and synthesis of potent PAR-1 antagonists based on vorapaxar” (Bioorg Med Chem Lett, 2020)

How the values were obtained:
[1] = Ratio of drug concentration in brain to plasma in Sprague-Dawley rat at 5 mg/kg, po measured at 8 hrs; format: ADME, organism-based; details: read-out: BPR
[2] = biological target: T1, Proteinase-activated receptor 1 (Homo sapiens) (UniProt P25116); assay: Antagonist activity at human PAR1 expressed in KNRK cells assessed as inhibition of agonist-induced intracellular calcium mobilization at 10^-7 M by fluorimetric assay relative to control; format: functional, cell-based
T1 sequence (whole entry): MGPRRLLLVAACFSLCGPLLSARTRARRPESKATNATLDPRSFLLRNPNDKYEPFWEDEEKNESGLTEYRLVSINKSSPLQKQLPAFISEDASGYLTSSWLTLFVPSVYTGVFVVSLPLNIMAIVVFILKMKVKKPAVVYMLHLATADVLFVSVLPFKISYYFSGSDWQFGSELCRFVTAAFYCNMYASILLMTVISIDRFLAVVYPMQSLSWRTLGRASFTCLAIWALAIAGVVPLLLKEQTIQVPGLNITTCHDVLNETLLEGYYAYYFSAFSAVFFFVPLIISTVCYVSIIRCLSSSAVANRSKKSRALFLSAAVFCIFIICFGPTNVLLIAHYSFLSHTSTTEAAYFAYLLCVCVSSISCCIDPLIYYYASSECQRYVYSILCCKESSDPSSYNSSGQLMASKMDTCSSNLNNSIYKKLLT

[3] = Cmax in Sprague-Dawley rat at 5 mg/kg, po or 1 mg/kg, iv; format: ADME, organism-based; details: in vivo
[4] = Oral bioavailability in Sprague-Dawley rat at 5 mg/kg; format: ADME, organism-based; details: in vivo
[5] = AUC (0 to infinity) in Sprague-Dawley rat at 5 mg/kg, po or 1 mg/kg, iv; format: ADME, organism-based; details: in vivo
[6] = biological target: T1, Proteinase-activated receptor 1 (Homo sapiens); assay: Antagonist activity at human PAR1 expressed in KNRK cells assessed as inhibition of agonist-induced intracellular calcium mobilization at 10^-5 M by fluorimetric assay relative to control; format: functional, cell-based
[7] = biological target: T1, Proteinase-activated receptor 1 (Homo sapiens); assay: Antagonist activity at human PAR1 expressed in KNRK cells assessed as inhibition of agonist-induced intracellular calcium mobilization at 10^-6 M by fluorimetric assay relative to control; format: functional, cell-based
[8] = biological target: T2, Proteinase-activated receptor 1 (Homo sapiens, UniProt P25116); assay: Antagonist activity at human PAR1 expressed in KNRK cells assessed as inhibition of agonist-induced intracellular calcium mobilization by fluorimetric assay; format: functional, cell-based
T2 sequence (P25116 whole entry): T1 sequence (whole entry)

[9] = Half life in Sprague-Dawley rat at 5 mg/kg, po or 1 mg/kg, iv; format: ADME, organism-based; details: in vivo

Structure (SMILES)	Kp at 8 h [1]	inhibition [2] [%]	Cmax [3] [ng/mL]	bioavailability [4] [%]	AUC(0-inf) [5] [ng·h/mL]	inhibition [6] [%]	inhibition [7] [%]	IC50 [8] [nM]	half-life [9] [h]
CCOC(=O)N[C@@H]1CC[C@@H]2[C@@H](C1)C[C@H]1C(=O)O[C@H](C)[C@H]1[C@H]2/C=C/c1ccc(-c2cccc(F)c2)cc1		-7				42	26		
CCOC(=O)N[C@@H]1CC[C@@H]2[C@@H](C1)C[C@H]1C(=O)O[C@H](C)[C@H]1[C@H]2/C=C/c1ccc(-c2ccccn2)cc1	0.54	5	710	44	7100	66	40	550	5
C[C@H]1OC(=O)[C@]2(NCC#N)C[C@@H]3CCCC[C@H]3[C@H](/C=C/c3ccc(-c4cccc(F)c4)cn3)[C@H]12	0.35	-4	2310	34	5140	99	92	760	8.5
C[C@H]1OC(=O)[C@]2(NCC(=O)O)C[C@@H]3CCCC[C@H]3[C@H](/C=C/c3ccc(-c4cccc(F)c4)cn3)[C@H]12	0.68	23	1140	70	5000	100	61	1100	2.9
CCOC(=O)CN[C@@]12C[C@@H]3CCCC[C@H]3[C@H](/C=C/c3ccc(-c4cccc(F)c4)cn3)[C@@H]1[C@@H](C)OC2=O		-5				101	81		
C[C@H]1OC(=O)[C@@H]2C[C@@H]3C[C@H](NCC(=O)O)CC[C@H]3[C@H](/C=C/c3ccc(-c4cccc(F)c4)cn3)[C@H]12		13				48	34		

Next, values leading:

Kp at 8 h [1]	inhibition [2] [%]	Cmax [3] [ng/mL]	bioavailability [4] [%]	AUC(0-inf) [5] [ng·h/mL]	inhibition [6] [%]	inhibition [7] [%]	IC50 [8] [nM]	half-life [9] [h]	Structure (SMILES)
1.08	25	440	94	3500	101	99	250	4	CCOC(=O)N[C@@H]1CC[C@@H]2[C@@H](C1)C[C@H]1C(=O)O[C@H](C)[C@H]1[C@H]2/C=C/c1ccc(-c2cccc(F)c2)cn1 [VORAPAXAR]
0.38	44	580	98	6390	99	71	180	6.4	C[C@H]1OC(=O)[C@@H]2C[C@@H]3C[C@H](NCC#N)CC[C@H]3[C@H](/C=C/c3ccc(-c4cccc(F)c4)cn3)[C@H]12
	3				81	28			C[C@H]1OC(=O)[C@@H]2C[C@@H]3C[C@H](Nc4nc5ccccc5o4)CC[C@H]3[C@H](/C=C/c3ccc(-c4cccc(F)c4)cn3)[C@H]12
1.13	20	110	23	860	101	98	610	6.7	Cc1ccnc(N[C@@H]2CC[C@@H]3[C@@H](C2)C[C@H]2C(=O)O[C@H](C)[C@H]2[C@H]3/C=C/c2ccc(-c3cccc(F)c3)cn2)n1
